Experimental data reported in a melting point compilation (Tetko et al.; mined from patent text by program, amines drawn as free bases though some values may be those of a salt).

Structure (SMILES) | melting point
O=C(O)C1CCC(c2ccccc2)n2c(=O)n(CCS)c(=O)n21 (stereo unspecified) | 172 to 175 °C
O=C(Cc1ccc(Br)cc1)c1ccc(Cl)cc1Cl | 69 to 70 °C
CNC(=NS(=O)(=O)N1CCCCC1)N1CC(c2ccccc2)C(c2ccc(Cl)cc2)=N1 (stereo unspecified) | 175 to 177 °C
CC(c1ccc2c(c1)C(=O)c1ccccc1C2=O)N1CCN(C)CC1 (stereo unspecified) | 98.9 to 102 °C
O=C(O)c1cccc(C(=O)c2ccc(C3CCCCC3)cc2)c1 | 180 to 185 °C
CCOC(=O)c1cn(C2CCCCC2)c2cc(Br)ccc2c1=O | 129 to 133 °C
CCP(=O)(CC)Cc1ccc(NC(=O)C2=Cc3cc(-c4ccc(C)cc4)ccc3OCC2)cc1 | 240 to 241 °C
CCCc1nc2cc(C)c(NC(=O)c3cc(C(F)(F)F)nn3-c3ncccc3Cl)c(C(=O)NC(C)C)c2cc1CC | 213 to 220 °C
Cc1nn(-c2cc(Oc3ccc([N+](=O)[O-])cn3)c(Cl)cc2F)c(=O)n1C(F)F | 120 to 123 °C
Cc1nnc(Br)n1-c1ccc(Cl)cc1C(=O)c1ccccc1 | 198 to 199 °C
NC(=O)c1[nH]c2ccccc2c1-c1ccc(NC(=O)Nc2cccc(C(F)(F)F)c2)cc1 | 156 to 158 °C
CN(Cc1ccc(C(=O)Cn2cnc3cc(-c4ccc(Cl)cc4)sc3c2=O)cc1)C(=O)C(F)(F)F | 235 to 238 °C
CCOC(=NC(=O)c1ccccc1)N1Cc2ccccc2-c2ccccc2C1 | 116 to 117 °C
Cc1nn(-c2cc(O)c(Cl)cc2F)c(=O)n1C(F)F | 147 to 152 °C
O=C(O)c1cc(Cl)nn2nnnc12 | 225 °C
CC(=O)ON=C1C(=O)Nc2cc(Cl)cc(Cl)c2C1=O | 194 to 195 °C

Structure (SMILES) | melting point
Cc1cc(C#N)ccc1-c1ccc(C=O)cc1 | 130 °C
O=Cc1ccc(-c2ccc(O)cc2)c2ccoc12 | 184 to 185 °C
CC(=O)NC1C(O)OC(COC(C)=O)C(O)(C(C)=O)C1OC(C)C(=O)O (stereo unspecified) | 85.8 to 90.8 °C
O=Cc1ccc(Sc2nc3cc(Cl)c(Cl)cc3[nH]2)o1 | 170 °C
O=C1c2ccccc2C(=O)N1CCN1c2ccccc2N(Cc2ccccc2)C(=O)[C@H]2CCC[C@H]21 (relative stereo) | 142 to 143 °C
O=C1c2c(Cl)c(Cl)c(Cl)c(Cl)c2C(=O)N1c1ccccc1 | 251 to 253 °C
O=S1(=O)N=CN(C2CC2)c2cc(F)cc(Br)c21 | 270 to 273 °C
CC=C1OCC2(CO1)COC(=CC)OC2 (stereo unspecified) | 30 °C
CC#CCCCn1ncc2c(N)c3c(nc21)CN(CCC)C3=O | 168 to 170 °C
CCCCCCCCCC(=O)Nc1cc(N)cc(NC(=O)CCCCCCCCC)c1 | 152 to 154 °C
FC(F)(F)c1nnc(S)s1 | 72 to 73 °C
Nc1cnc(Cl)c(Cl)c1 | 110 to 113 °C
O=C(NC1CCC(O)CC1)NC12CC3CC(CC(C3)C1)C2 (stereo unspecified) | 205 °C
Cn1cnnc1C(CCl)(c1ccc(Cl)cc1)c1ccc2c(c1)c(-c1cccc(Cl)c1)cc(=O)n2C (stereo unspecified) | 260 °C
N#Cc1cc(C=O)ccc1-n1cnc([N+](=O)[O-])n1 | 170 to 172 °C

Next, values leading:

melting point | Structure (SMILES)
104 to 106 °C | COC(=O)C(Oc1cc(OCc2ccsc2)ccc1C#N)c1ccccc1F (racemic)
61 to 62 °C | Cc1cccc(CCOc2ccc([N+](=O)[O-])cc2)n1
143 to 144 °C | CCOc1ccccc1-c1oc2c(C(=O)OCCO)cccc2c(=O)c1C
119 to 123 °C | Cc1ccc(Cc2cnc(NCCCNc3ncccc3C)[nH]c2=O)cn1
102 to 103 °C | CCCc1c2c(c(N)c3c(=O)cc(C(=O)OCC)oc13)CC(C(=O)OCC)CC2 (stereo unspecified)
39 to 40 °C | CCOC(=O)[C@@H]1OC(c2ccc3c(c2)OCO3)O[C@H]1C(=O)OCC
82 to 84 °C | CCOC(=O)CC(NC(C)=O)C(=O)c1ccco1 (stereo unspecified)
68 °C | C=C(C)C(=O)OCCCOc1ccc2cc(OC(=O)C(=C)C)ccc2c1
158 to 162 °C | CNC(=O)NCCn1c(-c2ccc(CN3CCOCC3)cc2OC)csc1=Nc1ccc(F)c(C)c1
210 °C | COc1cc(OC)nc(NC(=O)NS(=O)(=O)Nc2nc(OC)cc(OC)n2)n1
> 260 °C | COc1cc(Cc2cnc(N)nc2N)cc2c1OC(C)(C)C=C2c1cccs1
113 °C | COCCCNCCCc1ccc(-c2cnc(N)c(C(=O)Nc3cccnc3)n2)cc1
178 to 180 °C | COc1ccc(P(=O)(c2ccccc2)c2ccccc2)c(I)c1OC
160 to 161 °C | CCc1cccc2c(O)cnnc12
156 to 157 °C | COc1cc(O)c2c(=O)c(OC)c(-c3ccc(OCc4ccccc4)c(OC)c3)oc2c1
92 °C | Cc1cc(CCCc2ccc(CO)c(CO)c2)ccc1O
118 to 126 °C | COc1ccc(-c2nc3ccc(-n4cncn4)cc3[nH]2)cc1OC(C)C
119 to 121 °C | COc1cc(OC)cc(C2(Cl)C(C)(C)C2(C)C)c1
140 to 142 °C | CCOC(=O)C1=C(C)NC(c2cscn2)=NC1c1ccc(F)cc1Cl (stereo unspecified)
86 °C | CCOCCOc1cc(-n2nc(C)c(Cl)c2C)c(F)cc1C#N

melting point | Structure (SMILES)
223 °C | CC(C)(C)c1cc(-c2cc(-c3ccc(C(=O)O)cc3)ccc2OCCO)ccc1N1CCCC1
193 to 195 °C | CCN1C(=O)C(C)(C)C(=O)N(C)c2cc(CN(CCn3cc(C)c4occc4c3=O)Cc3cc(C)nn3C)ccc21
216 to 218 °C | Nc1cc(C(=O)O)cc(OCc2ccccc2)c1C(=O)c1ccccc1
115 to 119 °C | CCOC(=O)c1cc2c(Cl)cccc2n1[C@H](C)CNC(=O)OC(C)(C)C
122 °C | CC(=O)c1cc2c(C(C)=O)c(OCC(O)CNC(C)(C)C)ccc2o1 (stereo unspecified)
119 to 122 °C | O=C1NCCCCC1c1cccc(OCc2ccccc2)c1 (stereo unspecified)
205 to 206 °C | CC(=O)NCOc1ccc(S(=O)(=O)N2C3CCC2CN(CC(=O)Nc2ccccc2C)C3)cc1
60 to 62 °C | CC1(C)C2CC[C@]1(C)C(=O)C(C(=O)Nc1cccc(C(F)(F)F)c1)C2=O (stereo partly specified)
172 °C | FC1CNC(c2ccc3c(c2)OCO3)c2[nH]c3ccccc3c21 (stereo unspecified)
197 to 198 °C | O=C(O)CC1CCCc2c1n(Cc1ccccc1Cl)c1c(F)cc(F)cc21 (stereo unspecified)
76 °C | CCSc1c(C=NOCc2ccccc2)c(=O)n(C)c(=O)n1C
86 °C | [N-]=[N+]=NCC(O)c1cc(S(N)(=O)=O)ccc1F (stereo unspecified)
71 to 72 °C | CCCCCCCCCCOc1cnc(-c2ccccc2C#CCC(C)O)nc1 (single isomer, unassigned; (-))
131 to 132 °C | Fc1ccccc1-c1noc2c(Cl)c(OCCBr)ccc12
75 to 82 °C | CC(C)(C)C(=O)c1ccc(C2(C)OCCO2)cc1
174 to 175 °C | COc1ccc(-n2nc(-c3ccc(C)cc3)c(C(N)=O)c2N)cc1
47 to 48 °C | COc1ccccc1NC(=O)C(C)(C)CCCOc1cc(C)ccc1C
44 to 46 °C | COc1cccc(CC[C@H](O)CO[Si](C)(C)C(C)(C)C)c1O
150 to 151 °C | COc1nc(N2CCOCC2)c(Cl)nc1NS(=O)(=O)c1cccc(Cl)c1Cl
144 to 147 °C | COc1cccc(Sc2cccc([N+](=O)[O-])c2C#N)c1
